Experimental data as given in patent publication US10660877B2 (BRISTOL-MYERS SQUIBB COMPANY, priority 2016, dated 2020).
Read-outs that look alike come from different tables or passages of the source.

What was measured:
[1] = target: human TLR8 (Homo sapiens (Human), UniProt Q9NR97); assay: TLR8 inhibition reporter assay (HEK-Blue cells, SEAP reporter, R848 stimulation);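 further: compounds tested from 0.05 nM to 50 µM, 22 h at 37 °C, SEAP measured with HEK-Blue Detection, inhibition relative to agonist plus DMSO versus a known inhibitor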
Chain of human TLR8 (Q9NR97 27-1041): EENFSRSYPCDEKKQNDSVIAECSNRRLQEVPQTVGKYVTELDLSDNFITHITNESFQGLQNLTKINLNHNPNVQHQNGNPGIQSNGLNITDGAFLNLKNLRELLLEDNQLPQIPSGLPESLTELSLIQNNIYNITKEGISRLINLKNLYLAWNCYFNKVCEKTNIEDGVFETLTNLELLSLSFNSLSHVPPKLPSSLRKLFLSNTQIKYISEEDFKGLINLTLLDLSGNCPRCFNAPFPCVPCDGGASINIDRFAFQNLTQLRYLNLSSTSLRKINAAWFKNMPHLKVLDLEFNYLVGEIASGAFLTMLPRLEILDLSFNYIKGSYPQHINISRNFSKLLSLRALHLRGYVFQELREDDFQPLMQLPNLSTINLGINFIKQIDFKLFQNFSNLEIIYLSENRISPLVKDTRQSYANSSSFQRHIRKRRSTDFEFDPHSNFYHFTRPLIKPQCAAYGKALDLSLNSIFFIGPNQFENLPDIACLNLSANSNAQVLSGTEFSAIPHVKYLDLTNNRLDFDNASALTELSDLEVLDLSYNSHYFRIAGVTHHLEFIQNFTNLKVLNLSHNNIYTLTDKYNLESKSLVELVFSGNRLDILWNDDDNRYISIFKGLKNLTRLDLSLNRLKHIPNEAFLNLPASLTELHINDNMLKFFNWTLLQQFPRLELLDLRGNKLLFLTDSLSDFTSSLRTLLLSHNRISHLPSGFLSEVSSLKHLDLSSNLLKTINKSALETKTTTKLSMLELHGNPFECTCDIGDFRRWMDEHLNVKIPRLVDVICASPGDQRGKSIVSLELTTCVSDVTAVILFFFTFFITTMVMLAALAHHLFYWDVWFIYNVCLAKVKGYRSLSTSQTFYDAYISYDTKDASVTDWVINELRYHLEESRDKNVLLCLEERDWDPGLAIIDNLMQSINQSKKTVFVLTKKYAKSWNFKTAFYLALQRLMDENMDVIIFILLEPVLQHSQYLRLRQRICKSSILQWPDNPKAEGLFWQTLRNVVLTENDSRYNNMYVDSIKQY

[2] = target: human TLR7 (Homo sapiens (Human), UniProt Q9NYK1); assay: TLR7 inhibition reporter assay (HEK-Blue cells, SEAP reporter, gardiquimod stimulation); type: cell-based; conditions: HEK-Blue cells overexpressing human TLR7, gardiquimod 7.5 μM
Chain of human TLR7 (Q9NYK1 27-1049): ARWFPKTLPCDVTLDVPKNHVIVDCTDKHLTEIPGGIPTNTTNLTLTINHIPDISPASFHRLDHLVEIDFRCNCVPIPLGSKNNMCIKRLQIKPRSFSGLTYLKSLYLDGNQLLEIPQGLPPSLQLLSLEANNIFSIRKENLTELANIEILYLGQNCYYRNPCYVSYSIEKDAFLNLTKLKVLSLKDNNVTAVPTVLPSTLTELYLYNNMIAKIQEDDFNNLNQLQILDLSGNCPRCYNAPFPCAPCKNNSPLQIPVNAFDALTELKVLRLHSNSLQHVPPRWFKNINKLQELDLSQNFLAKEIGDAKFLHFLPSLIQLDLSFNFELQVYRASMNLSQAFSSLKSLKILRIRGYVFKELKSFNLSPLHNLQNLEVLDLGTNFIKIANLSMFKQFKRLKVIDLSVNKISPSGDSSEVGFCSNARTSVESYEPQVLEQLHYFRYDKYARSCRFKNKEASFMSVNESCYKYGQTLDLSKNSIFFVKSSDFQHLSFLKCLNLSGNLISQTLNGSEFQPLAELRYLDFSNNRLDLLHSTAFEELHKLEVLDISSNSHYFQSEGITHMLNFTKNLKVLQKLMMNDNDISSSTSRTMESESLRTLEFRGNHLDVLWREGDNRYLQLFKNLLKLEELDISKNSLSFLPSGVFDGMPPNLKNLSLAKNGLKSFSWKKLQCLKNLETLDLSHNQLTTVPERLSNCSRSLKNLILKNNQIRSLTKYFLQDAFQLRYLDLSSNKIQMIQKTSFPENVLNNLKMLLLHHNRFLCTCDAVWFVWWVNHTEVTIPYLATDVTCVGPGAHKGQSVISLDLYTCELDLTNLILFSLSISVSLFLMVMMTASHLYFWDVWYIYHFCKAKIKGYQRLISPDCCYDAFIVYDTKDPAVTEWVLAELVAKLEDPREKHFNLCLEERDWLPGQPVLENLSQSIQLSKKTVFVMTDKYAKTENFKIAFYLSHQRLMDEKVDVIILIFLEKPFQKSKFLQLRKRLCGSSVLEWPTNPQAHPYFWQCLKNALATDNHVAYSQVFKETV

[3] = target: human TLR9 (Homo sapiens (Human), UniProt Q9NR96); assay: TLR9 inhibition reporter assay (HEK-Blue cells, SEAP reporter, ODN2006 stimulation);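 further: compounds tested over 0.05 nM to 50 µM, 22 h incubation, inhibition taken as SEAP signal drop from agonist plus DMSO wells toward a known inhibitor control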
Chain of human TLR9 (Q9NR96 26-1032): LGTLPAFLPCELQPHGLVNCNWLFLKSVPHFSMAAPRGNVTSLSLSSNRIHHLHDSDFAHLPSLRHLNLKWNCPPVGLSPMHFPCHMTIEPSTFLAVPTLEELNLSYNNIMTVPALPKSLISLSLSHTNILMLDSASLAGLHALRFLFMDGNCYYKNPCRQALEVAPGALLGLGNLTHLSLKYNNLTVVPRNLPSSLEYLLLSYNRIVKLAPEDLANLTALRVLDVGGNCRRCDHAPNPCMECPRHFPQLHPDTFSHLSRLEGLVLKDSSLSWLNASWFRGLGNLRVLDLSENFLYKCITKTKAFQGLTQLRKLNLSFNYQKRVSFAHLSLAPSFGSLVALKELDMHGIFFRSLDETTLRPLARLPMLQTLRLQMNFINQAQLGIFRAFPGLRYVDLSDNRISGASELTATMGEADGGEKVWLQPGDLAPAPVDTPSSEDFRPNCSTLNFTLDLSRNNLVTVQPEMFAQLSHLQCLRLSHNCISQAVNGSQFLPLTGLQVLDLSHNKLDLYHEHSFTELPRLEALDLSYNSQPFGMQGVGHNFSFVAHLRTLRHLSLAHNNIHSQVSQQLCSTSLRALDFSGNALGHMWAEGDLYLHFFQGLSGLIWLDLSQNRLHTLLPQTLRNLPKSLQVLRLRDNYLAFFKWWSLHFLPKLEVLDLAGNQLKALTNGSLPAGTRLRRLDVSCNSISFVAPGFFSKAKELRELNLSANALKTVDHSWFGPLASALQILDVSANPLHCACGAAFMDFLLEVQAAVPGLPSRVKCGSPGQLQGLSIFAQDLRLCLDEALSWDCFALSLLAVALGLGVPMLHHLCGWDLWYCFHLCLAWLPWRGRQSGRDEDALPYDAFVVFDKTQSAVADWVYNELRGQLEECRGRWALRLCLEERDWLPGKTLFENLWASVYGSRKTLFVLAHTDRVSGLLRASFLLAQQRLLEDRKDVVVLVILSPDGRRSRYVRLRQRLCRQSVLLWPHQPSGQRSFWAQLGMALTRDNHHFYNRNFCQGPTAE

[4] = read-out: TLR8 IC50, HEK-Blue cells overexpressing human TLR8, R848 15.9 μM
[5] = read-out: TLR9 IC50, HEK-Blue cells overexpressing human TLR9, ODN2006 5 nM

SMILES | IC50 [1, 4] [µM] | IC50 [2] [µM] | IC50 [3, 5] [µM] | IC50 ([1]; TLR8 IC50, HEK-Blue cells overexpressing human TLR8, R848 15.9 μM) [µM] | IC50 ([3]; TLR9 IC50, HEK-Blue cells overexpressing human TLR9, ODN2006 5 nM) [µM]
CCCNC(=O)CN1CCC(c2ccc3[nH]c(-c4cc(C)nc(C)c4)c(C(C)C)c3c2)CC1 [Example 238, 2-(4-(2-(2,6-dimethylpyridin-4-yl)-3-isopropyl-1H-indol-5-yl)piperidin-1-yl)-N-propylacetamide] | 0.0102 | 0.0052 | 0.942 |  | 
Cc1cc(-c2[nH]c3ccc(C4CCN(CC(=O)N5CCCC(O)C5)CC4)cc3c2C(C)C)cc(C)n1 (stereo not drawn) [Example 277, 2-(4-(2-(2,6-dimethylpyridin-4-yl)-3-isopropyl-1H-indol-5-yl)piperidin-1-yl)-1-(3-hydroxypiperidin-1-yl)ethan-1-one] | 0.0066 | 0.002 | 0.201 |  | 
Cc1cc(-c2[nH]c3ccc(C4CCN(CCC#N)CC4)cc3c2C(C)C)cc(C)n1 [Example 315, 3-(4-(2-(2,6-dimethylpyridin-4-yl)-3-isopropyl-1H-indol-5-yl)piperidin-1-yl)propanenitrile] | 0.009 | 0.0066 | 1.05 |  | 
COCCOCCN1CCC(c2ccc3[nH]c(-c4cc(C)nc(C)c4)c(C(C)C)c3c2)CC1 [Example 324, 2-(2,6-dimethylpyridin-4-yl)-3-isopropyl-5-(1-(2-(2-methoxyethoxy)ethyl)piperidin-4-yl)-1H-indole] | 0.0044 | 0.0074 | 0.413 |  | 
Cc1cc(-c2[nH]c3ccc(C4CCN(C(=O)Cn5ccnn5)CC4)cc3c2C(C)C)cc(C)n1 [Example 158, 1-(4-(2-(2,6-dimethylpyridin-4-yl)-3-isopropyl-1H-indol-5-yl)piperidin-1-yl)-2-(1H-1,2,3-triazol-1-yl)ethan-1-one] | 0.0854 | 0.006 | 5.72 |  | 
CCN(C)CC(=O)N1CCC(c2ccc3[nH]c(-c4cc(C)nc(C)c4)c(C(C)C)c3c2)CC1 [Example 356, 1-(4-(2-(2,6-dimethylpyridin-4-yl)-3-isopropyl-1H-indol-5-yl)piperidin-1-yl)-2-(ethyl(methyl)amino)ethan-1-one] | 0.0139 | 0.0033 | 0.657 |  | 
CC(C)c1c(-c2ccnc(CN)c2)[nH]c2ccc(C3CCNCC3)cc12 [Example 14, (4-(3-isopropyl-5-(piperidin-4-yl)-1H-indol-2-yl)pyridin-2-yl)methanamine] | 0.187 | 0.423 | 1.2 |  | 
Cc1cc(-c2[nH]c3ccc(C4CCN(C(=O)CNC5(C)CCOCC5)CC4)cc3c2C(C)C)cc(C)n1 [Example 374, 1-(4-(2-(2,6-dimethylpyridin-4-yl)-3-isopropyl-1H-indol-5-yl)piperidin-1-yl)-2-((4-methyltetrahydro-2H-pyran-4-yl)amino)ethan-1-one] |  | 0.0056 |  | 0.0214 | 0.548
COCCCN1CCC(c2ccc3[nH]c(-c4cc(C)nc(C)c4)c(C(C)C)c3c2)CC1 [Example 330, 2-(2,6-dimethylpyridin-4-yl)-3-isopropyl-5-(1-(3-methoxypropyl)piperidin-4-yl)-1H-indole] | 0.0042 | 0.0037 | 0.999 |  | 
Cc1cc(-c2[nH]c3ccc(C4CCN(C(=O)Cc5cc(C)nn5C)CC4)cc3c2C(C)C)cc(C)n1 [Example 136, 2-(1,3-dimethyl-1H-pyrazol-5-yl)-1-(4-(2-(2,6-dimethylpyridin-4-yl)-3-isopropyl-1H-indol-5-yl)piperidin-1-yl)ethan-1-one] | 0.134 | 0.0233 | 30 |  | 
Cc1cc(-c2[nH]c3ccc(C4CCN(CC(O)C(F)(F)F)CC4)cc3c2C(C)C)cc(C)n1 (stereo not drawn) [Example 316, 3-(4-(2-(2,6-dimethylpyridin-4-yl)-3-isopropyl-1H-indol-5-yl)piperidin-1-yl)-1,1,1-trifluoropropan-2-ol] | 0.0023 | 0.0119 | 0.78 |  | 
Cc1cc(-c2[nH]c3ccc(C4CCN(CC(=O)N(C)C5CCOC5)CC4)cc3c2C(C)C)cc(C)n1 (stereo not drawn) [Example 289, 2-(4-(2-(2,6-dimethylpyridin-4-yl)-3-isopropyl-1H-indol-5-yl)piperidin-1-yl)-N-methyl-N-(tetrahydrofuran-3-yl)acetamide] | 0.0169 | 0.006 | 0.697 |  | 
Cc1cc(-c2[nH]c3ccc(C4CCN(CC(=O)NC5CCCOC5)CC4)cc3c2C(C)C)cc(C)n1 (stereo not drawn) [Example 279, 2-(4-(2-(2,6-dimethylpyridin-4-yl)-3-isopropyl-1H-indol-5-yl)piperidin-1-yl)-N-(tetrahydro-2H-pyran-3-yl)acetamide] | 0.011 | 0.0023 | 0.512 |  | 
CCc1c(-c2ccnc(OC)c2)[nH]c2ccc(C3CCN(C4C[C@H]5CCC[C@@H](C4)N5C)CC3)cc12 (stereo partly drawn) [Example 798, 3-ethyl-2-(2-methoxypyridin-4-yl)-5-(1-((1R,3r,5S)-9-methyl-9-azabicyclo[3.3.1]nonan-3-yl)piperidin-4-yl)-1H-indole] | 0.165 | 0.624 | 0.067 |  | 
Cc1cc(-c2[nH]c3ccc(C4CCN(C(=O)c5cnn(C)c5)CC4)cc3c2C(C)C)cc(C)n1 [Example 132, (4-(2-(2,6-dimethylpyridin-4-yl)-3-isopropyl-1H-indol-5-yl)piperidin-1-yl)(1-methyl-1H-pyrazol-4-yl)methanone] | 0.0908 | 0.0042 | 46.9 |  | 
Cc1cc(-c2[nH]c3ccc(C4CCN(CC(=O)N(C)C5CCCCC5)CC4)cc3c2C(C)C)cc(C)n1 [Example 278, N-cyclohexyl-2-(4-(2-(2,6-dimethylpyridin-4-yl)-3-isopropyl-1H-indol-5-yl)piperidin-1-yl)-N-methylacetamide] | 0.0285 | 0.0061 | 0.288 |  | 
Cc1cc(-c2[nH]c3ccc(C4CCN(C(=O)Cn5ccccc5=O)CC4)cc3c2C(C)C)cc(C)n1 [Example 157, 1-(2-(4-(2-(2,6-dimethylpyridin-4-yl)-3-isopropyl-1H-indol-5-yl)piperidin-1-yl)-2-oxoethyl)pyridin-2(1H)-one] | 0.0657 | 0.0165 | 2.5 |  | 

Further lines, results first:

IC50 [1, 4] [µM] | IC50 [2] [µM] | IC50 [3, 5] [µM] | IC50 ([1]; TLR8 IC50, HEK-Blue cells overexpressing human TLR8, R848 15.9 μM) [µM] | IC50 ([3]; TLR9 IC50, HEK-Blue cells overexpressing human TLR9, ODN2006 5 nM) [µM] | SMILES
0.0142 | 0.0063 | 3.32 |  |  | Cc1cc(-c2[nH]c3ccc(C4CCN(CC(=O)N(C)C)CC4)cc3c2C(C)C)cc(F)n1 [Example 500, 2-(4-(2-(2-fluoro-6-methylpyridin-4-yl)-3-isopropyl-1H-indol-5-yl)piperidin-1-yl)-N,N-dimethylacetamide]
0.0065 | 0.0085 | 0.255 |  |  | Cc1cc(-c2[nH]c3ccc(C4CCN(C5CCOC(C)(C)C5)CC4)cc3c2C(C)C)cc(C)n1 (stereo not drawn) [Example 453, 2-(2,6-dimethylpyridin-4-yl)-5-(1-(2,2-dimethyltetrahydro-2H-pyran-4-yl)piperidin-4-yl)-3-isopropyl-1H-indole]
0.241 | 0.251 | 15.4 |  |  | CCc1c(-c2ccnc(C)c2)[nH]c2ccc(C3CCN(C(=O)c4ccncc4)CC3)cc12 [Example 591, (4-(3-ethyl-2-(2-methylpyridin-4-yl)-1H-indol-5-yl)piperidin-1-yl)(pyridin-4-yl)methanone]
0.0208 | 0.0028 | 1.33 |  |  | Cc1cc(-c2[nH]c3ccc(C4CCN(C(=O)CN(C)CC#N)CC4)cc3c2C(C)C)cc(C)n1 [Example 423, 2-((2-(4-(2-(2,6-dimethylpyridin-4-yl)-3-isopropyl-1H-indol-5-yl)piperidin-1-yl)-2-oxoethyl)(methyl)amino)acetonitrile]
0.363 | 0.202 | 43.9 |  |  | COCCOC(=O)N1CCC(c2ccc3[nH]c(-c4ccnc(C)c4)c(C(C)C)c3c2)CC1 [Example 561, 2-methoxyethyl 4-(3-isopropyl-2-(2-methylpyridin-4-yl)-1H-indol-5-yl)piperidine-1-carboxylate]
0.177 | 0.0185 | 43.8 |  |  | Cc1cc(-c2[nH]c3ccc(C4CCN(C(=O)C5CCOC5)CC4)cc3c2C(C)C)ccn1 (stereo not drawn) [Example 599, (4-(3-isopropyl-2-(2-methylpyridin-4-yl)-1H-indol-5-yl)piperidin-1-yl)(tetrahydrofuran-3-yl)methanone]
0.0738 | 0.0078 | 1.07 |  |  | CCC(C)CN(CCO)CC(=O)N1CCC(c2ccc3[nH]c(-c4cc(C)nc(C)c4)c(C(C)C)c3c2)CC1 (stereo not drawn) [Example 406, 1-(4-(2-(2,6-dimethylpyridin-4-yl)-3-isopropyl-1H-indol-5-yl)piperidin-1-yl)-2-((2-hydroxyethyl)(2-methylbutyl)amino)ethan-1-one]
0.0394 | 0.0302 | 0.61 |  |  | CCc1c(-c2ccnc(C)c2)[nH]c2ccc(C3CCN(C(=O)CCN(C)C)CC3)cc12 [Example 594, 3-(dimethylamino)-1-(4-(3-ethyl-2-(2-methylpyridin-4-yl)-1H-indol-5-yl)piperidin-1-yl)propan-1-one]
0.341 | 11 | 0.181 |  |  | CCc1c(-c2ccnc(O)c2)[nH]c2ccc(C3CCN(C4CCN(CC(C)C)CC4)CC3)cc12 [Example 765, 4-(3-ethyl-5-(1′-isobutyl-[1,4′-bipiperidin]-4-yl)-1H-indol-2-yl)pyridin-2-ol]
0.0811 | 0.502 | 0.412 |  |  | CCc1c(-c2ccnc(OC)c2)[nH]c2ccc(C3CCN(C4CCN(CC(C)C)CC4)CC3)cc12 [Example 780, 3-ethyl-5-(1′-isobutyl-[1,4′-bipiperidin]-4-yl)-2-(2-methoxypyridin-4-yl)-1H-indole]
0.0076 | 0.0143 | 0.149 |  |  | Cc1cc(-c2[nH]c3ccc(C4CCN(CC(C)(C)O)CC4)cc3c2C2CC2)cc(C)n1 [Example 668, 1-(4-(3-cyclopropyl-2-(2,6-dimethylpyridin-4-yl)-1H-indol-5-yl)piperidin-1-yl)-2-methylpropan-2-ol]
